Reference: the supplement of paper PMC11208160

Assay: recombinant barcode read abundance after kanamycin selection (control-corrected) (log10(CPM+1)); higher = more efficient recombination; sequences stand for … in AGTGCAGAGAAAATCGGCCAGTTTTCTCTGCCTGCAGTCCGCATGCCGT…AGATTTATGCAGCGGACTGCCTTTCTCCCAAAGTGATAAACCGGACAGTATCATGGACCGGTTTTCCCGGTAATCCGTATTTGCAAGGTTGGTTTCACT; site = the 11-nt target
Procedure, shortened: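 A vector carrying a T7-inducible recombinase and the last 73 bp of the bridge RNA received, by Gibson cloning, oligos encoding a promoter, target, barcode and the first 104 bridge RNA bases under J23119. The pooled constructs entered E. coli together with a donor plasmid by electroporation. Selection used chloramphenicol/ampicillin/kanamycin with 0.1 mM IPTG, with chloramphenicol/ampicillin LB agar as the control, each in two replicates. Recombination efficiency is the averaged, control-corrected counts-per-million of barcodes at recombinant junctions, reported as log10(CPM+1).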
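Further: IS621 recombinase and bridge RNA in Escherichia coli cells.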

Sequence | recombinant barcode read abundance (log10)
GGATACACTTGGGTTCTAACCTGTTGCCA (site GGATACACTTG) | 1.35
GGATACACTTGGGTTCTAACCTGTTGCCA (site GGATCCACTTG) | 0.041
GGATACACTTGGGTTCTAACCTGTTGCCA (site GGATGCACTTG) | 0.0123
GGATACACTTGGGTTCTAACCTGTTGCCA (site GGATTCACTTG) | 0.274
GGATGGACTTGGGTTCTAACCTGTTGCTT (site GGATAGCCTAA) | 0.0315
GGATGGACTTGGGTTCTAACCTGTTGCTT (site GGATGGACTAA) | 1.96
GGCAAACCTTGGGTTCTAACCTGTTGCGG (site CATGGGACTAT) | 0.0629
GGCAAACCTTGGGTTCTAACCTGTTGCGG (site GGCAAACCTCC) | 2.09
GGCAACTCTTGGGTTCTAACCTGTTGCCT (site AAGTTAGCTCC) | 0
GGCAACTCTTGGGTTCTAACCTGTTGCCT (site GGCAACTCTAG) | 0.0853
GGCACCGCTTGGGTTCTAACCTGTTGCCT (site GGCACAGCTAG) | 0.0859
GGCACCGCTTGGGTTCTAACCTGTTGCCT (site GGCACCGCTAG) | 0.905
GGCACCGCTTGGGTTCTAACCTGTTGCCT (site GGCACGGCTAG) | 0.164
GGCACCGCTTGGGTTCTAACCTGTTGCCT (site GGCACTGCTAG) | 0.0527
GGCAGACCTTGGGTTCTAACCTGTTGCCT (site GGCAGACCTAG) | 1
GGCAGACCTTGGGTTCTAACCTGTTGCCT (site GGCAGTCCTCG) | 0.373
GGCATATCTTGGGTTCTAACCTGTTGCCT (site AGTATATCTAG) | 0.0602
GGCATATCTTGGGTTCTAACCTGTTGCCT (site GGCATATCTAG) | 0.048
GGCATCCCTTGGGTTCTAACCTGTTGCCT (site GGCATCCCTAG) | 0.337
GGCATCCCTTGGGTTCTAACCTGTTGCCT (site GGCCTCCCTAG) | 0.258
GGCATCCCTTGGGTTCTAACCTGTTGCCT (site GGCGTCCCTAG) | 0.184
GGCATCCCTTGGGTTCTAACCTGTTGCCT (site GGCTTCCCTAG) | 0.145

Sequence | recombinant barcode read abundance (log10)
GGCCGGACTTGGGTTCTAACCTGTTGCCT (site GGCCGGACTAG) | 0.937
GGCCGGACTTGGGTTCTAACCTGTTGCCT (site GGCCGGCCTAG) | 0.253
GGCCGGACTTGGGTTCTAACCTGTTGCCT (site GGCCGGGCTAG) | 0.112
GGCCGGACTTGGGTTCTAACCTGTTGCCT (site GGCCGGTCTAG) | 0.021
GGCCGGGCTTGGGTTCTAACCTGTTGCCT (site GGCCGGACTAG) | 0.143
GGCCGGGCTTGGGTTCTAACCTGTTGCCT (site GGCCGGCCTAG) | 0.0912
GGCCGGGCTTGGGTTCTAACCTGTTGCCT (site GGCCGGGCTAG) | 0.219
GGCCGGGCTTGGGTTCTAACCTGTTGCCT (site GGCCGGTCTAG) | 0.0839
GGCCGTCCTTGGGTTCTAACCTGTTGCAG (site ACCCGTCCTCT) | 0.184
GGCCGTCCTTGGGTTCTAACCTGTTGCAG (site GGCCGTCCTCT) | 0.118
GGCGCCTCTTGGGTTCTAACCTGTTGCGC (site AATCTAACTAG) | 0.139
GGCGCCTCTTGGGTTCTAACCTGTTGCGC (site GGCGCCTCTGC) | 0.777
GGCGCGTCTTGGGTTCTAACCTGTTGCCT (site GGCGCATCTAG) | 0.607
GGCGCGTCTTGGGTTCTAACCTGTTGCCT (site GGCGCGTCTAG) | 0.557
GGCGTCACTTGGGTTCTAACCTGTTGCCT (site GGCGACCCTAG) | 0.111
GGCGTCACTTGGGTTCTAACCTGTTGCCT (site GGCGTCACTAG) | 1.24
GGCTAACCTTGGGTTCTAACCTGTTGCCT (site CATCGGACTTT) | 0.0416
GGCTAACCTTGGGTTCTAACCTGTTGCCT (site GGCTAACCTAG) | 1.33
GGCTACCCTTGGGTTCTAACCTGTTGCAA (site CTGGTATCTAA) | 0.148
GGCTACCCTTGGGTTCTAACCTGTTGCAA (site GGCTACCCTTT) | 0.774
GGCTAGACTTGGGTTCTAACCTGTTGCGG (site GGCTAGACTCC) | 1.43
GGCTAGACTTGGGTTCTAACCTGTTGCGG (site GGCTCTACTCC) | 0.0457

Sequence | recombinant barcode read abundance (log10)
GGCTTCTCTTGGGTTCTAACCTGTTGCCT (site GGCTTCTCTAG) | 1.22
GGCTTCTCTTGGGTTCTAACCTGTTGCCT (site TGCCTCTCTAG) | 0.0687
GGGAACCCTTGGGTTCTAACCTGTTGCTA (site GGGAACCCTAA) | 0.147
GGGAACCCTTGGGTTCTAACCTGTTGCTA (site GGGAACCCTCA) | 0.132
GGGAACCCTTGGGTTCTAACCTGTTGCTA (site GGGAACCCTGA) | 0.0297
GGGAACCCTTGGGTTCTAACCTGTTGCTA (site GGGAACCCTTA) | 1.29
GGGACCTCTTGGGTTCTAACCTGTTGCGG (site GGGACCTCTAC) | 1.25
GGGACCTCTTGGGTTCTAACCTGTTGCGG (site GGGACCTCTCC) | 1.94
GGGATGTCTTGGGTTCTAACCTGTTGCCT (site GAGATGTCTAG) | 0.444
GGGATGTCTTGGGTTCTAACCTGTTGCCT (site GCGATGTCTAG) | 0.128
GGGATGTCTTGGGTTCTAACCTGTTGCCT (site GGGATGTCTAG) | 2.04
GGGATGTCTTGGGTTCTAACCTGTTGCCT (site GTGATGTCTAG) | 0.211
GGGCAGCCTTGGGTTCTAACCTGTTGCCT (site GGGCAACCTAC) | 0.0939
GGGCAGCCTTGGGTTCTAACCTGTTGCCT (site GGGCAGCCTAG) | 0.458
GGGCATCCTTGGGTTCTAACCTGTTGCTT (site GGGCATCCTAA) | 0.652
GGGCATCCTTGGGTTCTAACCTGTTGCTT (site GTGCACCCTAA) | 0.637
GGGCCGGCTTGGGTTCTAACCTGTTGCCG (site AATGATTCTAC) | 0.292
GGGCCGGCTTGGGTTCTAACCTGTTGCCG (site GGGCCGGCTCG) | 1.14
GGGCCTGCTTGGGTTCTAACCTGTTGCCA (site CTCGACCCTAT) | 0
GGGCCTGCTTGGGTTCTAACCTGTTGCCA (site GGGCCTGCTTG) | 1.18
GGGCTGTCTTGGGTTCTAACCTGTTGCTT (site GGGCTGTCTAA) | 0.705
GGGCTGTCTTGGGTTCTAACCTGTTGCTT (site GGGGTGTCTCA) | 0.37

Sequence | recombinant barcode read abundance (log10)
GGGGAGCCTTGGGTTCTAACCTGTTGCTG (site GGGGAGCCTCA) | 2.9
GGGGAGCCTTGGGTTCTAACCTGTTGCTG (site GGGGAGTCTAA) | 0.358
GGGGATCCTTGGGTTCTAACCTGTTGCCT (site GAGGATCCTAG) | 0.679
GGGGATCCTTGGGTTCTAACCTGTTGCCT (site GGGGATCCTAG) | 2.45
GGGGCACCTTGGGTTCTAACCTGTTGCAT (site GGGGCACCTAA) | 1.56
GGGGCACCTTGGGTTCTAACCTGTTGCAT (site GGGGCACCTAC) | 0.357
GGGGCACCTTGGGTTCTAACCTGTTGCAT (site GGGGCACCTAG) | 0.598
GGGGCACCTTGGGTTCTAACCTGTTGCAT (site GGGGCACCTAT) | 2.89
GGGGCCTCTTGGGTTCTAACCTGTTGCTT (site GGGGCATCTAA) | 0.481
GGGGCCTCTTGGGTTCTAACCTGTTGCTT (site GGGGCCTCTAA) | 2.59
GGGGCCTCTTGGGTTCTAACCTGTTGCTT (site GGGGCGTCTAA) | 0.225
GGGGCCTCTTGGGTTCTAACCTGTTGCTT (site GGGGCTTCTAA) | 0.398
GGGGCGGCTTGGGTTCTAACCTGTTGCCT (site GGGGCGACTAG) | 0.489
GGGGCGGCTTGGGTTCTAACCTGTTGCCT (site GGGGCGCCTAG) | 0.0428
GGGGCGGCTTGGGTTCTAACCTGTTGCCT (site GGGGCGGCTAG) | 1.8
GGGGCGGCTTGGGTTCTAACCTGTTGCCT (site GGGGCGTCTAG) | 0.242
GGGGCGTCTTGGGTTCTAACCTGTTGCCG (site GGGCAGTCTCG) | 0.201
GGGGCGTCTTGGGTTCTAACCTGTTGCCG (site GGGGCGTCTCG) | 1.63
GGGGCGTCTTGGGTTCTAACCTGTTGCCT (site GGGGCGACTAG) | 0.167
GGGGCGTCTTGGGTTCTAACCTGTTGCCT (site GGGGCGCCTAG) | 0.426
